Source: patent publication EP0611660A2, “Condensed 5-membered heterocycles, process for their preparation and medicines containing these compounds” (Dr. Karl Thomae GmbH, priority 1993, dated 1994)
Structures can show the parent of a compound that is named as a salt.

Test system: Thrombozytenaggregation
Test: Antithrombotic effect: collagen-induced platelet aggregation (Born and Cross) in platelet-rich plasma
Format: cell-based
Conditions: human platelet-rich plasma, 10 min preincubation at 37 °C, 50% change of optical density, read-out: Hemmung der Plättchenaggregation EC50
Source text: 2. Antithrombotische Wirkung: Methodik Die Thrombozytenaggregation wird nach der Methode von Born und Cross (J. Physiol. 170, 397 (1964)) in plättchenreichem Plasma gesunder Versuchspersonen gemessen. Zur Gerinnungshemmung wird das Blut mit Natriumcitrat 3,14 % im Volumenverhältnis 1:10 versetzt. Collagen-induzierte Aggregation Der […] Substanz photometrisch gemessen und registriert. Aus dem Neigungswinkel der Dichtekurve wird auf die Aggregationsgeschwindigkeit geschlossen. Der Punkt der Kurve, bei dem die größte Lichtdurchlässigkeit vorliegt, dient zur Berechnung der "optical density". Die Collagen-Menge wird möglichst gering gewählt, aber doch so, daß sich eine irreversibel verlaufende Reaktionskurve ergibt. Verwendet wird das handelsübliche Collagen der Firma Hormonchemie, München. Vor der Collagen-Zugabe wird das Plasma jeweils 10 Minuten mit der Substanz bei 37 ° C inkubiert. Aus den erhaltenen Meßzahlen wird graphisch eine EC50 bestimmt, die sich auf eine 50%ige Änderung der "optical density" […].

SMILES	IC50 [nM]
N=C(N)c1ccc(-c2nc3c(=O)n(CCCCC(=O)O)c(=O)n4c3n2CCC4)cc1 [1(61), 2-(4-Amidino-phenyl)-9-(4-carboxy-butyl)-8,10-dioxo-5,6-dihydro-4H,9H-pyrimido[1,2,3-cd]purin-dih-ydrobromid]	110
Cn1c(CCC2CCNCC2)nc2c(=O)n(CCCCC(=O)O)c(=O)n(C)c21 [1(49), 1-(4-Carboxy-butyl)-3,9-dimethyl-8-[2-(4-piperidinyl)-ethyl]-xanthin-dihydrobromid]	150
Cn1c(=O)n(CCCCC(=O)O)c(=O)c2[nH]c([C@H]3CC[C@H](CN)CC3)nc21 [1(64), 8-(trans-4-Aminomethyl-cyclohexyl)-1-(4-carboxy-butyl)-3-methyl-xanthin-dihydrochlorid]	30000
Cn1c(=O)n(CCCCC(=O)O)c(=O)c2[nH]c(CCC3CCNCC3)nc21 [1(48), 1-(4-Carboxy-butyl)-3-methyl-8-[2-(4-piperidinyl)ethyl]-xanthin-dihydrochlorid]	250
Cn1c(CCC2CCNCC2)nc2cc(C(=O)CCCC(=O)O)ccc21 [1(15), 5-(4-Carboxy-1-oxo-butyl)-1-methyl-2-[2-(4-piperidinyl)-ethyl]-benzimidazol-dihydrobromid]	1250
O=C(O)CCCCn1c(=O)c2nc(CCC3CCNCC3)n3c2n(c1=O)CCC3 [1(63), 9-(4-Carboxy-butyl)-2-[2-(4-piperidinyl)-ethyl]-8,10-dioxo-5,6-dihydro-4H,9H-pyrimido[1,2,3-cd]purin-dihydrobromid]	4400
Cn1c(C(=O)NC2CCNCC2)nc2cc(C(=O)NCCC(=O)O)ccc21 [1(1), 5-[(2-Carboxy-ethyl)-aminocarbonyl]-1-methyl-2-[(4-piperidinyl)-aminocarbonyl]-benzimidazol-dihydro-bromid]	> 10000

Further lines, results first:

IC50 [nM]	SMILES
660	COC(=O)CCCCn1c(=O)c2nc(-c3ccc(C(=N)N)cc3)n3c2n(c1=O)CCC3 [7(12), 2-(4-Amidino-phenyl)-9-(4-methoxycarbonyl-butyl)-8,10-dioxo-5,6-dihydro-4H,9H-pyrimido[1,2,3-cd]-purin]
2000	COC(=O)CCNC(=O)c1ccc2c(c1)nc(CCC1CCNCC1)n2C [Beispiel 2, 5-[(2-Methoxycarbonyl-ethyl)-aminocarbonyl]-1-methyl-2-[2-(4-piperidinyl)-ethyl]-benzimidazol]
6400	Cn1c(CCC2CCNCC2)nc2c1c(=O)n(CCCCC(=O)O)c(=O)n2C [6(12), 1-(4-Carboxy-butyl)-3,7-dimethyl-8-[2-(4-piperidinyl)-ethyl]-xanthin]
430	Cn1c(CCC2CCNCC2)nc2cc(C(=O)NCCC(=O)O)ccc21 [Beispiel 1, 5-[(2-Carboxy-ethyl)-aminocarbonyl]-1-methyl-2-[2-(4-piperidinyl)-ethyl]-benzimidazol-dihydrobromid]
2300	Cn1c(-c2ccc(C3CCNCC3)cc2)nc2cc(C=CC(=O)O)ccc21 [1(67), 5-(2-Carboxy-ethenyl)-1-methyl-2-[4-(4-piperidinyl)-phenyl]-benzimidazol-dihydrobromid]
